Legend:
sporozoites = test: Sporozoite challenge at day 14 following IM administration of Compound 2 (percent protection, FIG. 2A); assay type: in vivo, mouse; conditions: IM Compound 2
Experimental: The exposure is not highly variable between animals in a given group. The Ctrough is about 83±32 nM for animals that are protected from infection.

[1] = Dog PK, crystalline compound 2 suspension injected intramuscularly (Table 24A); assay type: in vivo; design: Clast: unit not given here; conditions: plasma analyte = labelled substance; for half-life / plasma exposure (in words): after IM crystalline Compound 2 10 mg/kg suspension
Experimental: Compound 2 was dosed in dog at 10 mg/kg (Injection volume: 0.5 mL/kg). The material was formulated as a 20 mg/mL suspension in 3% TPGS and 1% HPMC E5. […] Half-life of ELQ-300 was about […] as that of compound 2 (205 and 124 respectively).

[2] = Key in vitro ADME for Compound 2 (Table 36); conditions: for half-life: read-out: Hepatocyte T1/2
[3] = Atovaquone plasma concentration following PO administration of Compound 27 (Table 29); assay type: in vivo, mice; conditions: Compound 27, PO; 28 d
Experimental: Animals (Male CD-1 mice, 7-9 weeks) were obtained from an approved vendor (SLAC Laboratory Animal Co. Ltd., Shanghai, China; or SIPPR-B&K Laboratory Animal Co. Ltd., Shanghai, China).
Animals were fasted at least 12 hours prior to the administration. All animals had access to Certified Rodent Diet (Catalog #M01-F, SLAC Laboratory Animal Cl. Ltd., Shanghai, China) ad libitum 4 hours post dosing.
Appropriate amount of test compound was accurately weighed and mixed with appropriate volume of vehicle to get a clear solution or a uniform suspension, vortexing or sonication in water bath was sometimes needed. The formulations were prepared on the day of dosing. Animals were dosed within four hours after the formulation was prepared. Two 20 μL aliquots of each formulation were removed from each of the formulation solutions, transferred into 1.5 mL of polypropylene microcentrifuge tubes and run dose validation by LC/UV or LC-MS/MS.
The PO dose formulation was administered via oral gavage following facility SOPs. […]
• Aliquots of the formulations were collected in the middle position of each dose formulation in duplicate. • The concentrations of the test compound in dose formulation samples were determined by the LC/UV or LC/MS/MS method. […]
Plasma concentration versus time data was analyzed by non-compartmental approaches using the Phoenix WinNonlin 6.3 software program. […]

[4] = after IM crystalline Compound 2 10 mg/kg, 20 mg/mL suspension in 3% TPGS, 1% HPMC E5

| half-life [1] [h] | AUC(0-inf) [1, 4] [µM·h] | AUC(0-t) [1, 4] [µM·h] | CL/F [1, 4] [mL/min/kg] | Clast [1, 4] | Cmax [1, 4] [nM] | T1/2 [1, 4] | Tmax [1, 4] [h] | half-life ([2]; Dog hepatocytes) [h] | Liver S9 % remaining after 2 hours ([2]; Dog liver S9) [%] | Plasma % remaining after 2 hours ([2]; Dog plasma) [%] | half-life ([2]; Human hepatocytes) [h] | Liver S9 % remaining after 2 hours ([2]; Human liver S9) [%] | Plasma % remaining after 2 hours ([2]; Human plasma) [%] | Plasma % remaining after 2 hours ([2]; Monkey plasma) [%] | Plasma % remaining after 2 hours ([2]; Mouse plasma) [%] | Plasma % remaining after 2 hours ([2]; Rat plasma) [%] | average atovaquone plasma concentration [3] | SMILES | Ctrough (ELQ-300) for animals that are protected from infection (sporozoites) | plasma exposure (in words) [1] |
| --- | --- | --- | --- | --- | --- | --- | --- | --- | --- | --- | --- | --- | --- | --- | --- | --- | --- | --- | --- | --- |
| 124 | 18.1 | 16.4 | 14.4 | 4.5 (4.7) | 730 | 124 (34) h | 3 | 0.367 | 47 | 83 | 1.28 | 35 | 82 | 85 | 0 | 0 | – | CCCC(=O)OCOc1c(-c2ccc(Oc3ccc(OC(F)(F)F)cc3)cc2)c(C)nc2cc(OC)c(Cl)cc12 [Compound 2, (6-chloro-7-methoxy-2-methyl-3-(4-(4-(trifluoromethoxy)phenoxy)phenyl)quinolin-4-yloxy)methyl butyrate] | about 83±32 nM | low but detectable throughout the duration of the study |
| 205 | 1290 | 1140 | 0.23 | – | 4640 | 205 (39) h | 48 | – | – | – | – | – | – | – | – | – | – | COc1cc2[nH]c(C)c(-c3ccc(Oc4ccc(OC(F)(F)F)cc4)cc3)c(=O)c2cc1Cl [ELQ-300, 6-chloro-7-methoxy-2-methyl-3-(4-(4-(trifluoromethoxy)phenoxy)phenyl)quinolin-4(1H)-one, reference compound] | – | several orders of magnitude higher than that of Compound 2 |
| – | – | – | – | – | – | – | – | – | – | – | – | – | – | – | – | – | BQL | CCCCCCCCCC(=O)OC1=C(C2CCC(c3ccc(Cl)cc3)CC2)C(=O)c2ccccc2C1=O (stereo not shown) [Compound 27, 3-((1r,4r)-4-(4-chlorophenyl)cyclohexyl)-1,4-dioxo-1,4-dihydronaphthalen-2-yl decanoate] | – | – |
